Assay results as given in PMC5564600 (Oncotarget, 2017).
Like-named read-outs stand apart in the source and are kept apart here.

Experiments:
Test in all cases: biochemical
Format in all cases: binding
panel of 442 kinases [1] = target: T1, panel of 442 kinases (Homo sapiens, UniProt O14730); details: kinase RIOK3; for remaining activity at 1 µM: read-out: RIOK3 (% of control at 1 µM)
T1 construct: purchased Ambit Biosciences (scanMAXX KINOMEscan)
T1 sequence (O14730 1-519): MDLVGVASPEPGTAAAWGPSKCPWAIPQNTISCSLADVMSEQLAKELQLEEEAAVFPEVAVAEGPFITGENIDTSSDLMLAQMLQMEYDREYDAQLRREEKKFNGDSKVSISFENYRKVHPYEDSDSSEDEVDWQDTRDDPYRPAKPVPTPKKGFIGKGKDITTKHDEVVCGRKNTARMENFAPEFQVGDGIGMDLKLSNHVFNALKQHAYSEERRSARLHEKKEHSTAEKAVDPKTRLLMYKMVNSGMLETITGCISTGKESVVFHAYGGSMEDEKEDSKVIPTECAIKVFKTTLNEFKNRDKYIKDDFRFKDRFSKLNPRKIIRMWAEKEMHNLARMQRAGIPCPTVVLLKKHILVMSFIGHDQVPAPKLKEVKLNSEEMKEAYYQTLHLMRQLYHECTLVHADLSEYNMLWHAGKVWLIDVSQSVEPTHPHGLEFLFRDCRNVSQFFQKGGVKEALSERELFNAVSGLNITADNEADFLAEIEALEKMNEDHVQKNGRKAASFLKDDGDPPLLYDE

panel of 442 kinases [2] = target: T2, panel of 442 kinases (Homo sapiens, UniProt P21127); details: CDC2L1; for remaining activity at 1 µM: read-out: % of control at 1 µM
T2 construct: purchased Ambit Biosciences (scanMAXX KINOMEscan)

panel of 442 kinases [3] = target: T3, panel of 442 kinases (Homo sapiens, UniProt P46734); details: kinase MEK3; for remaining activity at 1 µM: read-out: % of control at 1 µM
T3 construct: purchased Ambit Biosciences (scanMAXX KINOMEscan)
T3 sequence (P46734 1-347): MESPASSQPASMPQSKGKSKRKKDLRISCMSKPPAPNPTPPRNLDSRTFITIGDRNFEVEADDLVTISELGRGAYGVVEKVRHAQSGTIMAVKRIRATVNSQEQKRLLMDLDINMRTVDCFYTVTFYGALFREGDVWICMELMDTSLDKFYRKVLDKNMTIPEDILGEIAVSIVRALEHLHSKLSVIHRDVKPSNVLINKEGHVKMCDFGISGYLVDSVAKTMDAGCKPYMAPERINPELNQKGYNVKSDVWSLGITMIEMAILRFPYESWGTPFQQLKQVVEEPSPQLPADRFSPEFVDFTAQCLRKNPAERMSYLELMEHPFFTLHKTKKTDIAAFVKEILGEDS

panel of 442 kinases [4] = target: T4, panel of 442 kinases (Homo sapiens, UniProt Q15418)
T4 construct: purchased Ambit Biosciences (scanMAXX KINOMEscan)

panel of 442 kinases [5] = target: T5, panel of 442 kinases (Homo sapiens, UniProt Q8NI60); details: ADCK3; for remaining activity at 1 µM: read-out: % of control at 1 µM
T5 construct: purchased Ambit Biosciences (scanMAXX KINOMEscan)

panel of 442 kinases [6] = target: T6, panel of 442 kinases (Homo sapiens, UniProt Q96BR1); details: kinase SGK3; for remaining activity at 1 µM: read-out: SGK3 (% of control at 1 µM)
T6 construct: purchased Ambit Biosciences (scanMAXX KINOMEscan)
T6 sequence (Q96BR1 1-496): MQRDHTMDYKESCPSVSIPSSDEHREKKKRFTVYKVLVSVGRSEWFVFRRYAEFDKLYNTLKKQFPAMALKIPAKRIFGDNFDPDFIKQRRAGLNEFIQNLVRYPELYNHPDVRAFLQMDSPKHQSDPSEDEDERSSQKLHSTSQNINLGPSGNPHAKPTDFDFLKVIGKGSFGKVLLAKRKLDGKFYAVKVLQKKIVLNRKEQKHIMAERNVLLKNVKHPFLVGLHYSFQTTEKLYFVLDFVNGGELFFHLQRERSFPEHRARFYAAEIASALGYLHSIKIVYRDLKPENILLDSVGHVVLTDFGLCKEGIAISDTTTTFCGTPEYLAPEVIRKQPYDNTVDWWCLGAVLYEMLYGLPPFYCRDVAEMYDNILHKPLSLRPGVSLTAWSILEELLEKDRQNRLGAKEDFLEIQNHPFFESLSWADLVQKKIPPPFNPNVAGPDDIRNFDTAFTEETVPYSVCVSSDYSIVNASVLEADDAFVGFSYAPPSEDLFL

panel of 442 kinases [7] = target: T7, panel of 442 kinases (Homo sapiens, UniProt Q96SB4); details: kinase SRPK1; for remaining activity at 1 µM: read-out: SRPK1 (% of control at 1 µM)
T7 construct: purchased Ambit Biosciences (scanMAXX KINOMEscan)

panel of 442 kinases [8] = target: T8, panel of 442 kinases (Homo sapiens, UniProt Q9H2K8); details: kinase TAOK3; for remaining activity at 1 µM: read-out: TAOK3 (% of control at 1 µM)
T8 construct: purchased Ambit Biosciences (scanMAXX KINOMEscan)
T8 sequence (Q9H2K8 1-898): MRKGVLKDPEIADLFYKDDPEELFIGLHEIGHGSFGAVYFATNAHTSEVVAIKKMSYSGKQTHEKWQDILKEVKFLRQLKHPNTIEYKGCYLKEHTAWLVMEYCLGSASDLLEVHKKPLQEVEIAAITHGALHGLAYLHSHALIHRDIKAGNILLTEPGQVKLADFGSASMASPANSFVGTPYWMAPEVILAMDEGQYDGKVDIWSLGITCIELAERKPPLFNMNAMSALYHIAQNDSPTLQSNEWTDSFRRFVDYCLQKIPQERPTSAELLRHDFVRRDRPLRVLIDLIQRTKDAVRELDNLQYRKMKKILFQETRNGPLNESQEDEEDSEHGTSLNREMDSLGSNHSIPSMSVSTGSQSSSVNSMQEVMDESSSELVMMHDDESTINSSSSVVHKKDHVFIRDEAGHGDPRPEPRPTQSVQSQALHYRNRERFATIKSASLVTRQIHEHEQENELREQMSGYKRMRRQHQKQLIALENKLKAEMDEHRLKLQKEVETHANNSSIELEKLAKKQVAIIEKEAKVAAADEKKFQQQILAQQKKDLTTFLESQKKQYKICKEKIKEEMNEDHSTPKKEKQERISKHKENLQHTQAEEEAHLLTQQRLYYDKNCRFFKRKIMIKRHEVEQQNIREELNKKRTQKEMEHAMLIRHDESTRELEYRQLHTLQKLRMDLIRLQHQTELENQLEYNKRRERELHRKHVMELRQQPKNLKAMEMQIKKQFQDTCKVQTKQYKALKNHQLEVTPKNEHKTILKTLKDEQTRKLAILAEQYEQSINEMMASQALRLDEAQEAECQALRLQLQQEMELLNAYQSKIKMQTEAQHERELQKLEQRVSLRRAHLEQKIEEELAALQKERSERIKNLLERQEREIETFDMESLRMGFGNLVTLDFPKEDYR

[9] = 10 µM, read-out: % of control at 10 µM
[10] = kinase RSK1(Kin.Dom.1-N-terminal), read-out: RSK1(Kin.Dom.1-N-terminal) (% of control at 1 µM)
[11] = kinase RSK1(Kin.Dom.2-C-terminal), read-out: RSK1(Kin.Dom.2-C-terminal) (% of control at 1 µM)

T4 sequence (Q15418 whole entry): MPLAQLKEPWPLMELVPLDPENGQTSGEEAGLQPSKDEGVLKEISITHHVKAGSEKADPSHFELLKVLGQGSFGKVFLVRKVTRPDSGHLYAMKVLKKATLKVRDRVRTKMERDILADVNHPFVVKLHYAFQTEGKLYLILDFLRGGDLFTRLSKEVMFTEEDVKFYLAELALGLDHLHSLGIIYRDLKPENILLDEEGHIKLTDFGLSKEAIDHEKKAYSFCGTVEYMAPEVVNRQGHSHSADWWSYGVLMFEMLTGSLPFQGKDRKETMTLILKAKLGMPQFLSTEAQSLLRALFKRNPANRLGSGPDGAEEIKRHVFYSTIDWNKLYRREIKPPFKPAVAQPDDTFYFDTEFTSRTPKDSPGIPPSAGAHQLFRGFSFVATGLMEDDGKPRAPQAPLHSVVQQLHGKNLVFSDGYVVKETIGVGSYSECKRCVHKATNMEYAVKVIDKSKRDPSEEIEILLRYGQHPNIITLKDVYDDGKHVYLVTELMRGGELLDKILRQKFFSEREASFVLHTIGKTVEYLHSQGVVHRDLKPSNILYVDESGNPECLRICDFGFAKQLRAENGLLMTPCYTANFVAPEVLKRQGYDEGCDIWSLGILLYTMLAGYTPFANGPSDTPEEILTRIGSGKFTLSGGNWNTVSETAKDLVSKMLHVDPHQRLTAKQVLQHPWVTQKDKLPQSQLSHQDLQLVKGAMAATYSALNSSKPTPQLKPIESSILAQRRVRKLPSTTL
T2 sequence (P21127 whole entry): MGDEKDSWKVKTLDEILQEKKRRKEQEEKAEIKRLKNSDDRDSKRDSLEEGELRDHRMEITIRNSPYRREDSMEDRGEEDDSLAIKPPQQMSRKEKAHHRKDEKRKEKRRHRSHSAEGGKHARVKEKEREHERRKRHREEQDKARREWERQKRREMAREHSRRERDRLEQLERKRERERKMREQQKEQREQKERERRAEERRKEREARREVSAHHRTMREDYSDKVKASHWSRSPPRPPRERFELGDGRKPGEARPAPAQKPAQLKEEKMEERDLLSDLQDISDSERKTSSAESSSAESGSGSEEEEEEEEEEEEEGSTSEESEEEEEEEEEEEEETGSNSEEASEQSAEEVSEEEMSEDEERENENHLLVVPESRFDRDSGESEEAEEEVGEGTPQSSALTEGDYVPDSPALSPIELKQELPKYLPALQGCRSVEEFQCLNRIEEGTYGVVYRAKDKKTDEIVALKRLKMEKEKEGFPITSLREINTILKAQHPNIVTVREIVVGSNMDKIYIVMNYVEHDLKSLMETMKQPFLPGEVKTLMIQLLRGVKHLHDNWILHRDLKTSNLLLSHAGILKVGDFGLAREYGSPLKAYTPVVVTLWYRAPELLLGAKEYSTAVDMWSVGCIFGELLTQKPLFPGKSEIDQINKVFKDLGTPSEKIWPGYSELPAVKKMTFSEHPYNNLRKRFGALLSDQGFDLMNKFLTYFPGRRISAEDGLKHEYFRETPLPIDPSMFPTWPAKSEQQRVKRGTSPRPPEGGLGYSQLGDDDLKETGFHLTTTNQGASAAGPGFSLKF
T7 sequence (Q96SB4 whole entry): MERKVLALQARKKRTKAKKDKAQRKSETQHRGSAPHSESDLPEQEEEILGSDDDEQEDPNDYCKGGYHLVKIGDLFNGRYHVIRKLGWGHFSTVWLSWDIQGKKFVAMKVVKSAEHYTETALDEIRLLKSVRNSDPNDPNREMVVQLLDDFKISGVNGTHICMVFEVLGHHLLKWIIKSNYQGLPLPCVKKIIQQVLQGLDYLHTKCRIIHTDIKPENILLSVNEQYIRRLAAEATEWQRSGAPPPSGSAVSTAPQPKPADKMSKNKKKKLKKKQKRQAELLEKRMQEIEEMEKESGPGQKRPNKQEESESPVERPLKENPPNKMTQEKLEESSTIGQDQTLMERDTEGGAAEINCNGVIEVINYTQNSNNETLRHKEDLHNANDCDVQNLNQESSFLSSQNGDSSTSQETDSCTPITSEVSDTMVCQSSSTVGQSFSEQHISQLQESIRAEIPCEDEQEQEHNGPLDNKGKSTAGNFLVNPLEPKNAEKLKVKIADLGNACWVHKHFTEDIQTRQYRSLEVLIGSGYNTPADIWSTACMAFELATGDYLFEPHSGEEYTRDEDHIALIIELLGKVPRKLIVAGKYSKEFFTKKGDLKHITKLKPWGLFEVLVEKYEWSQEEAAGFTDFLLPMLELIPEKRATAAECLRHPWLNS
T5 sequence (Q8NI60 163-647): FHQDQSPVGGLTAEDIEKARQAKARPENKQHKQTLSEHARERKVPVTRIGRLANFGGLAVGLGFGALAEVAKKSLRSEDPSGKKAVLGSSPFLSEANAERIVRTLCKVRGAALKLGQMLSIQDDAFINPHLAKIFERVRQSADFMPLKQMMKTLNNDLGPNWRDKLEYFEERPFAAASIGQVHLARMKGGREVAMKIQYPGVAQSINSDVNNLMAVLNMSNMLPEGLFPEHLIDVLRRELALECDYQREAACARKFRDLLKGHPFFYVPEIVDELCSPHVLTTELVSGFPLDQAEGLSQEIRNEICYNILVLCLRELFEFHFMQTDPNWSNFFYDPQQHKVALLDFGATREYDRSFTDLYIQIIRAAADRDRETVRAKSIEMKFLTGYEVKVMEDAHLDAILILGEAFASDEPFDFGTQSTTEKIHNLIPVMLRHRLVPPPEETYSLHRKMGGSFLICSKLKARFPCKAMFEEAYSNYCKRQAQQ

Structure (SMILES) | remaining activity at 1 µM (panel of 442 kinases [1]) | remaining activity at 10 µM (panel of 442 kinases [1]; 10 µM, read-out: RIOK3 (% of control at 10 µM)) | remaining activity at 1 µM (panel of 442 kinases [2]) | remaining activity at 10 µM (panel of 442 kinases [2]; [9]) | remaining activity at 1 µM (panel of 442 kinases [3]) | remaining activity at 10 µM (panel of 442 kinases [3]; [9]) | remaining activity at 1 µM (panel of 442 kinases [4]; [10]) | remaining activity at 10 µM (panel of 442 kinases [4]; kinase RSK1(Kin.Dom.1-N-terminal), read-out: RSK1(Kin.Dom.1-N-terminal) (% of control at 10 µM)) | remaining activity at 1 µM (panel of 442 kinases [4]; [11]) | remaining activity at 10 µM (panel of 442 kinases [4]; kinase RSK1(Kin.Dom.2-C-terminal), read-out: RSK1(Kin.Dom.2-C-terminal) (% of control at 10 µM)) | remaining activity at 1 µM (panel of 442 kinases [5]) | remaining activity at 10 µM (panel of 442 kinases [5]; [9]) | remaining activity at 1 µM (panel of 442 kinases [6]) | remaining activity at 10 µM (panel of 442 kinases [6]; 10 µM, read-out: SGK3 (% of control at 10 µM)) | remaining activity at 1 µM (panel of 442 kinases [7]) | remaining activity at 10 µM (panel of 442 kinases [7]; 10 µM, read-out: SRPK1 (% of control at 10 µM)) | remaining activity at 1 µM (panel of 442 kinases [8]) | remaining activity at 10 µM (panel of 442 kinases [8]; 10 µM, read-out: TAOK3 (% of control at 10 µM))
Nc1cc(C(F)(F)F)c(-c2cc(N3CCOCC3)nc(N3CCOCC3)n2)cn1 [Buparlisib] | 95% | 95% | 85% | 92% | 100% | 100% | 100% | 100% | 97% | 98% | 100% | 89% | 79% | 100% | 100% | 100% | 89% | 78%
COc1ncc(-c2ccc3nccc(-c4ccnnc4)c3c2)cc1NS(=O)(=O)c1ccc(F)cc1F [Omipalisib] | 95% | – | 96% | – | 46% | – | 95% | – | 95% | – | 87% | – | 92% | – | 100% | – | 100% | –
FC(F)c1nc2ccccc2n1-c1nc(N2CCOCC2)nc(N2CCOCC2)n1 [ZSTK474, 2-(difluoromethyl)-1-[4,6-di(4-morpholinyl)-1,3,5-triazin-2-yl]-1H-benzimidazole] | 71% | – | 88% | – | 100% | – | 100% | – | 83% | – | 82% | – | 87% | – | 67% | – | 92% | –
Cn1c(=O)n(-c2ccc(C(C)(C)C#N)cc2)c2c3cc(-c4cnc5ccccc5c4)ccc3ncc21 [Dactolisib, 2-methyl-2-[4-(3-methyl-2-oxo-8-quinolin-3-yl-2,3-dihydroimidazo[4,5-c]quinolin-1-yl)-phenyl] propionitrile] | 70% | – | 100% | – | 96% | – | 77% | – | 61% | – | 82% | – | 100% | – | 88% | – | 100% | –
